According to US11542273B2, “Amide compound having bet proteolysis-inducing action and medicinal application thereof” (MITSUBISHI TANABE PHARMA CORPORATION, priority 2018, dated 2023):
Like-named read-outs stand apart in the source and are kept apart here.

Legend:
[1] = tested on: human Burkitt lymphoma Raji cell; assay: Cytotoxic action on cancer cells (WST-8, 96 hr); format: cell-based; conditions: 96 hr culture
Procedure, shortened: (§1)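 Cells in 10% FBS/RPMI1640 were seeded, cultured overnight at 37 °C with 5% CO2, then exposed to compound for 96 hr. Viable cells were measured with WST-8 against compound-free controls. IC50 was interpolated linearly between the two concentrations bracketing 50% survival.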

[2] = tested on: human T-cell leukemia Jurkat cells; assay: Cytotoxic action on cancer cells (WST-8, 96 hr); format: cell-based; conditions: 96 hr culture
Procedure, shortened: as §1

[3] = tested on: human acute myeloid leukemia MV-4-11 cell; assay: Cytotoxic action on cancer cells (WST-8, 96 hr); format: cell-based; conditions: MV4-11, MV-4-11 cells, 96 hr culture
Procedure, shortened: as §1

[4] = tested on: human bladder cancer 5637 cell; assay: Cytotoxic action on cancer cells (WST-8, 96 hr); format: cell-based; conditions: 5637 cells, 96 hr culture
Procedure, shortened: as §1

[5] = tested on: human breast cancer ZR-75-1 cell; assay: Cytotoxic action on cancer cells (WST-8, 96 hr); format: cell-based; conditions: ZR-75-1 cells, 96 hr culture
Procedure, shortened: as §1

[6] = tested on: human castration-resistant prostate cancer PC-3 cell; assay: Cytotoxic action on cancer cells (WST-8, 96 hr); format: cell-based; conditions: PC-3 cells (printed P0-3 in table), 96 hr culture
Procedure, shortened: as §1

[7] = tested on: human chronic myeloid leukemia K562 cell; assay: Cytotoxic action on cancer cells (WST-8, 96 hr); format: cell-based; conditions: 96 hr culture
Procedure, shortened: as §1

[8] = tested on: human colorectal cancer HCT116 cell; assay: Cytotoxic action on cancer cells (WST-8, 96 hr); format: cell-based; conditions: HCT-116, 96 hr culture
Procedure, shortened: as §1

[9] = tested on: human diffuse large B-cell lymphoma SU-DHL-6 cell; assay: Cytotoxic action on cancer cells (WST-8, 96 hr); format: cell-based; conditions: SU-DHL-6 cells, 96 hr culture
Procedure, shortened: as §1

[10] = tested on: human gastric cancer SNU-16 cell; assay: Cytotoxic action on cancer cells (WST-8, 96 hr); format: cell-based; conditions: SNU-16 cells, 96 hr culture
Procedure, shortened: as §1

[11] = tested on: human glioma U-87 MG cell; assay: Cytotoxic action on cancer cells (WST-8, 96 hr); format: cell-based; conditions: U-87 MG cells, 96 hr culture
Procedure, shortened: as §1

[12] = tested on: human large cell lung cancer NCI-H460 cell; assay: Cytotoxic action on cancer cells (WST-8, 96 hr); format: cell-based; conditions: 96 hr culture
Procedure, shortened: as §1

[13] = tested on: human liver cancer Hep G2 cell; assay: Cytotoxic action on cancer cells (WST-8, 96 hr); format: cell-based; conditions: HepG2, 96 hr culture
Procedure, shortened: as §1

[14] = tested on: human multiple myeloma MM.1S cell; assay: Cytotoxic action on cancer cells (WST-8, 96 hr); format: cell-based; conditions: MM1.S, MM.1S cells, 96 hr culture
Procedure, shortened: as §1

[15] = tested on: human non-small cell lung cancer NCI-H1975 cell; assay: Cytotoxic action on cancer cells (WST-8, 96 hr); format: cell-based; conditions: 96 hr culture
Procedure, shortened: as §1

[16] = tested on: human ovarian cancer A2780 cell; assay: Cytotoxic action on cancer cells (WST-8, 96 hr); format: cell-based; conditions: 96 hr culture
Procedure, shortened: as §1

[17] = tested on: human pancreatic cancer AsPC-1 cell; assay: Cytotoxic action on cancer cells (WST-8, 96 hr); format: cell-based; conditions: ASPC1, AsPC-1 cells, 96 hr culture
Procedure, shortened: as §1

[18] = tested on: human prostate cancer LNCaP cells; assay: Cytotoxic action on cancer cells (WST-8, 96 hr); format: cell-based; conditions: read-out: LNCaP cytotoxic activity: IC50
Procedure, shortened: as §1

[19] = tested on: human small cell lung cancer NCI-H82 cell; assay: Cytotoxic action on cancer cells (WST-8, 96 hr); format: cell-based; conditions: 96 hr culture
Procedure, shortened: as §1

[20] = tested on: human triple negative breast cancer MDA-MB-231 cell; assay: Cytotoxic action on cancer cells (WST-8, 96 hr); format: cell-based; conditions: MDA-MB-231 cells, 96 hr culture
Procedure, shortened: as §1

[21] = tested on: human uterine sarcoma MES-SA cell; assay: Cytotoxic action on cancer cells (WST-8, 96 hr); format: cell-based; conditions: 96 hr culture
Procedure, shortened: as §1

BRD4 protein = BRD4 protein (Homo sapiens (Human), UniProt O60885); assay: BRD4 protein degradation inducing action in cancer cells (immunofluorescence, Operetta); format: cell-based; conditions: LNCaP cells, 6 hr treatment, fluorescence intensity
Procedure, shortened: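 LNCaP prostate cancer cells in 10% FBS/RPMI1640 were exposed to compound for 6 hr at 37° C, then fixed, permeabilized and immunostained for BRD4 with Alexa Fluor 488 or 546 secondary antibodies plus Hoechst nuclear stain. Fluorescence was read by high-content imaging; DC50 is the concentration giving 50% of untreated signal, interpolated linearly between bracketing points.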

BRD4 bromodomain 1 = BRD4 bromodomain 1 (Homo sapiens (Human), UniProt O60885); assay: Inhibitory action on binding of BRD4 protein and ligand, Test Method 1 (TR-FRET, BRD4 bromodomain 1 TR-FRET Assay Kit); conditions: Test Method 1, BRD4 bromodomain 1 and ligand
Experimental: The inhibitory action of the compound of the present invention on the binding of BRD4 protein and a ligand thereof was evaluated by the time-resolved fluorescence resonance energy transfer (TR-FRET) method using BRD4 bromodomain 1 TR-FRET Assay Kit (Cayman). In this experiment, (+)-JQ1 known to have an inhibitory activity on the binding of BRD4 protein and a ligand therefor was used as a positive control drug. A test compound dissolved in DMSO was diluted with TR-FRET Assay Buffer, added to a 384 well black plate, BRD4 bromodomain 1 Europium Chelete was further added and the cells were incubated at room temperature for 15 min. Thereafter, BRD4 bromodomain 1 Ligand/APC Acceptor Mixture was added and the cells were incubated at room temperature for 1 hr. The binding amount of the BRD4 protein and ligand was measured as fluorescence intensity (excitation: 340 nm/emission: 620 nm and excitation: 340 nm/emission: 670 nm).
It was calculated from the straight line connecting the degradation rate at two points enclosing the 50% fluorescence intensity and the compound concentration.

BRD4-1 (GST) = BRD4-1 (GST) (Homo sapiens (Human), UniProt O60885); assay: Inhibitory action on binding of BRD4 protein and acetylated histone H4, Test Method 2 (TR-FRET); conditions: Test Method 2, BRD4-1 (GST) and acetylated histone H4, TR-FRET
Experimental: The inhibitory action of the compound of the present invention on the binding of BRD4 protein and a ligand thereof (acetylated histone H4) was evaluated by the time-resolved fluorescence resonance energy transfer (TR-FRET) method using EPIgeneous™ Binding Domain Kit A (Cisbio), BRD4-1 (GST) (Reaction Biology Corp) and [Lys(Ac)5/8/12/16]-Histone H4(1-21)-GGK (Biotin) (Eurogentec). In this experiment, (+)-JQ1 known to have an inhibitory activity on the binding of BRD4 protein and acetylated histone H4 therefor was used as a positive control drug. A test compound dissolved DMSO was diluted with attached Diluent Buffer, added to a 384 well white plate, and BRD4-1 (GST) and [Lys(Ac)5/8/12/16]-Histone H4(1-21)-GGK (Biotin) were further added. Thereafter, Streptavidin-d2 conjugate and Anti-GST-Eu^3+ Cryptate Conjugate were added and the cells were incubated at room temperature for 3 hr. The binding amount of the BRD4 protein and acetylated histone H4 was measured as the fluorescence intensity (excitation: 314 nm/emission: 620 nm and excitation: 314 nm/emission: 665 nm). […] It was calculated from the straight line connecting the degradation rate at two points enclosing the 50% fluorescence intensity and the compound concentration.

For `COC(=O)C[C@@H]1N=C(c2ccc(-c3ccc(OCCOCC(=O)N[C@H](C(=O)N4C[C@H](O)C[C@H]4C(=O)N[C@@H](C)c4ccc(-c5scnc5C)cc4)C(C)(C)C)c(C#N)c3)cc2)c2c(sc(C)c2C)-n2c(C)nnc21` [Example 8, methyl [(6S)-4-(3′-cyano-4′-{2-[2-({(2S)-1-[(2S,4R)-4-hydroxy-2-({(1S)-1-[4-(4-methyl-1,3-thiazol-5-yl)phenyl]ethyl}carbamoyl)pyrrolidin-1-yl]-3,3-dimethyl-1-oxobutan-2-yl}amino)-2-oxoethoxy]ethoxy}[1,1′-biphenyl]-4-yl)-2,3,9-trimethyl-6H-thieno[3,2-f][1,2,4]triazolo[4,3-a][1,4]diazepin-6-yl]acetate], the IC50 [1] was 5.7 nM, the IC50 [2] was 4.3 nM and the IC50 [3] was 0.15 nM. The IC50 [4] was 2.1 nM, the IC50 [5] was 4.2 nM and the IC50 [6] was 2.5 nM. For the same compound, the IC50 [7] was 5.2 nM, the IC50 [8] was 37 nM and the IC50 [9] was 2.1 nM. For the same compound, the IC50 [10] was 17 nM, the IC50 [11] was 25 nM and the IC50 [12] was 75 nM. For the same compound, the IC50 [13] was 48 nM, the IC50 [14] was 0.24 nM and the IC50 [15] was 20 nM. For the same compound, the IC50 [16] was 0.36 nM, the IC50 [17] was 81 nM and the IC50 ([18]; Homo sapiens, LNCaP, 96 h) was 0.68 nM. For the same compound, the IC50 [19] was 35 nM, the IC50 [20] was 14 nM and the IC50 [21] was 21 nM. For the same compound, the DC50 (BRD4 protein) was 0.41 nM and the IC50 (BRD4 bromodomain 1) was 82 nM.

Work on (+)-JQ1 [reference compound] yielded an IC50 ([18]; LNCaP cells, 96 hr culture, WST-8) of 19000 nM, an IC50 (BRD4 bromodomain 1) of 7400 nM and an IC50 (BRD4-1 (GST)) of 550 nM.
